Assay results taken from article PMC10574767, “Extractives from Artemisia afra with Anti-Bacterial and Anti-Fungal Properties” (Plants, 2023).
Values after ≈ are worked out from the molar mass of the structure shown. Read-outs that look alike come from different tables or passages of the source.

How the values were obtained:
[1] = tested on: intra-erythrocytic and gametocyte asexual P. falciparum parasites; parameters: method as in PMID 30849984; conditions: intra-erythrocytic and gametocyte stages; cited from earlier work
COX-1 = tested on: COX-1; parameters: method as in doi:10.3329/bjp.v8i2.14167; conditions: cited from earlier work
COX-2 = tested on: COX-2; parameters: method as in doi:10.3329/bjp.v8i2.14167; conditions: cited from earlier work
[2] = tested on: Candida albicans ATCC 10231; test: Serial dilution microplate MIC (fungi); format: cell-based; conditions: for MIC: Candida albicans; for Selectivity index C. albicans: in brackets, Vero LC50 vs MIC
Experimental: (§1) The MIC value of the plant extracts and isolated compounds against one fungal and five bacterial strains (Salmonella Typhimurium ATCC 39183, Escherichia coli ATCC 25922, Pseudomonas aeruginosa ATCC 27853, Staphylococcus aureus ATCC 29213, Enterococcus faecalis ATCC 29212, and fungi culture, Candida albicans ATCC 10231) was assessed in triplicate using the serial dilution microplate method; acetone and DMSO were used as solvents. Bacterial cultures were grown in Mueller Hinton broth (Sigma Aldrich, St. Louis, MO, USA) overnight and adjusted to McFarland standard 1 (1 × 10^8 CFU/mL). Then, 100 µL of samples were transferred into the first well of a sterile 96-well microtiter plate, which contained 100 µL of water and a 1:1 serial dilution with sterilized distilled water was carried out. In each well, 100 µL of appropriately adjusted fungal or bacterial cultures were added, and the bacteria were subjected to final concentrations of 250–3.9 μg/mL for pure compounds and 2.5–0.02 mg/mL for crude extracts. Amphotericin-B and Gentamicin (Virbac, Carros, France) served as positive controls for fungi and bacteria, respectively. For sterility, water served as control, while acetone served as a negative control. The microplates were then incubated for 24 h at 37 °C. Following incubation, 40 µL of 0.2 mg/mL p-iodonitrotetrazolium violet (INT, Sigma Aldrich) dissolved in water (hot) was added to the wells before being incubated at 37 °C for another 2 h. In the case of fungi, the INT was added before incubation. The MIC was measured visually as the lowest concentration of the compounds/extracts that inhibited proliferation.

[3] = tested on: Enterococcus faecalis ATCC 29212; test: Serial dilution microplate MIC; format: cell-based; conditions: for MIC: Enterococcus faecalis; for Selectivity index E. faecalis: in brackets, Vero LC50 vs MIC
Experimental: as §1

[4] = tested on: Escherichia coli ATCC 25922; test: Serial dilution microplate MIC; format: cell-based; conditions: for MIC: Escherichia coli; for Selectivity index E. coli: in brackets, Vero LC50 vs MIC
Experimental: as §1

[5] = tested on: Pseudomonas aeruginosa ATCC 27853; test: Serial dilution microplate MIC; format: cell-based; conditions: for MIC: Pseudomonas aeruginosa; for Selectivity index P. aeruginosa: in brackets, Vero LC50 vs MIC
Experimental: as §1

[6] = tested on: Salmonella Typhimurium ATCC 39183; test: Serial dilution microplate MIC; format: cell-based; conditions: for MIC: Salmonella enterica, read-out: Minimum inhibitory concentration (MIC) S. Typhimurium; for Selectivity index S. Typhimurium: in brackets, Vero LC50 vs MIC
Experimental: as §1

[7] = tested on: Staphylococcus aureus ATCC 29213; test: Serial dilution microplate MIC; format: cell-based; conditions: for MIC: Staphylococcus aureus; for Selectivity index S. aureus: in brackets, Vero LC50 vs MIC
Experimental: as §1

in vitro = test: in vitro
Experimental: Cytotoxicity of compounds and extracts was tested against mammalian cells using the MTT assay. MCF-7 cancer cells were grown in a 5% CO2 incubator in Dulbecco’s Modified Eagle’s Medium (DMEM, Highveld Biological, Johannesburg, South Africa) supplemented with 10% fetal calf serum (Adcock-Ingram, Johannesburg, South Africa) and 1% penicillin-streptomycin (10,000 U/mL and 10 mg/mL streptomycin, Sigma Aldrich). In a 5% CO2 incubator, Vero cells were grown in a minimal essential medium (MEM, Highveld Biological, South Africa) supplemented with 5% fetal calf serum (Adcock-Ingram) and 0.1% gentamicin (Virbac). Cell suspensions were obtained from 70–80% confluent monolayer cultures and were plated in 96-well cell culture plates at a density of 1 × 10^4. Plates were incubated in a 5% CO2 incubator for 24 h at 37 °C. The cells were exposed to the extracts or compounds dissolved in the media at different concentrations for 48 h. Positive and negative controls were doxorubicin (Pfizer, New York, NYC, USA) and acetone or DMSO, respectively. After that, the wells were rinsed with phosphate-buffered saline (PBS, Sigma) and 200 µL of fresh medium was poured into the wells. Thirty microlitres (5 mg/mL) of MTT (Sigma) dissolved in PBS was added to each well, and the plates were incubated at 37 °C for 4 h. The medium from the wells was removed, rinsed, and 50 µL of 100% DMSO was added to the wells. At a wavelength of 570 nm, absorbance was measured using a microplate reader (BioTek Synergy, Beijing, China). Each sample concentration was tested in quadruplicate in two repeats (n = 8), and the concentration causing 50% inhibition of cell viability (LC50) was calculated. Selectivity index (SI) values for the extracts/compounds were obtained by dividing cytotoxicity LC50 values of normal (Vero) cells by those of the cancer cells.

[8] = tested on: Botrytis cinerea and Sclerotinia sclerotiorum; parameters: method as in PMID 37570772; conditions: cited from earlier work
[9] = tested on: Leishmania braziliensis amastigotes; parameters: method as in PMID 32664596; conditions: cited from earlier work
Plasmodium falciparum = tested on: Plasmodium falciparum; parameters: method as in PMID 32664596; conditions: cited from earlier work
HEK295 = tested on: HEK295; parameters: method as in PMID 27357542; conditions: cited from earlier work
MCF-7 tumor cells = tested on: MCF-7 tumor cells; parameters: method as in PMID 27357542; conditions: 1 µg/mL; cited from earlier work
Caco-2 tumor cells = tested on: Caco-2 tumor cells; parameters: method as in PMID 27357542; conditions: 5 μg/mL; cited from earlier work
[10] = tested on: one fungal and five bacterial strains; test: Serial dilution microplate MIC, whole panel; format: cell-based; conditions: isolated compounds, highest concentration 250 µg/mL
Experimental: as §1

E. coli = tested on: E. coli; parameters: method as in PMID 23480526; conditions: cited from earlier work
P. aeruginosa = tested on: P. aeruginosa; parameters: method as in PMID 23480526; conditions: cited from earlier work
S. aureus = tested on: S. aureus; parameters: method as in PMID 23480526; conditions: cited from earlier work
L. monocytogenes = tested on: L. monocytogenes; parameters: method as in PMID 23480526; conditions: cited from earlier work
[11] = parameters: method as in PMID 22693528; conditions: cited from earlier work
[12] = ATCC10231, isolated compounds, Table 2, read-out: Minimum inhibitory concentration (MIC) C. albicans
[13] = ATCC29212, isolated compounds, Table 2, read-out: Minimum inhibitory concentration (MIC) E. faecalis
[14] = ATCC25922, isolated compounds, Table 2, read-out: Minimum inhibitory concentration (MIC) E. coli
[15] = ATCC27853, isolated compounds, Table 2, read-out: Minimum inhibitory concentration (MIC) P. aeruginosa
[16] = ATCC29213, isolated compounds, Table 2, read-out: Minimum inhibitory concentration (MIC) S. aureus

C=C1C(=O)O[C@H]2C1[C@@H](OC(C)=O)CC(=C)[C@]1(O)C=C[C@@](C)(O)[C@H]21 (stereo partly drawn) [1α, 4α-dihydroxybishopsolicepolide]
IC50 [1]: ~10 µM

CC(=O)O[C@H]1CC[C@]2(C)[C@H]3CC[C@]4(C)C(=CC[C@@]5(C)CCC(C)(C)C[C@H]54)[C@]3(C)CC[C@H]2C1(C)C [3β-Taraxerol acetate, 3β-taraxerol acetate]
IC50 (COX-1): 116 µM
IC50 (COX-2): 94.7 µM

C[C@@H]1[C@H](O)[C@@H](C)/C=C/C=C/C=C/C=C/C=C/C=C/C=C/[C@H](O[C@@H]2O[C@H](C)[C@@H](O)[C@H](N)[C@@H]2O)C[C@@H]2O[C@](O)(C[C@@H](O)C[C@@H](O)[C@H](O)CC[C@@H](O)C[C@@H](O)CC(=O)O[C@H]1C)C[C@H](O)[C@H]2C(=O)O [Amphotericin-B, reference compound]
MIC ([2]; ATCC10231, crude extracts, Table 1, read-out: Minimum inhibitory concentration (MIC) C. albicans): 20 µg/mL (≈ 21.6 µM)
MIC [2, 12]: 3.9 µg/mL (≈ 4.22 µM)

CCCCCCCCCCCCOC(=O)/C=C/c1ccc(O)cc1 [Dodecyl-p-coumarate, dodecyl-p-coumarate]
MIC ([3]; ATCC29212, read-out: Minimum inhibitory concentration (MIC) E. faecalis): 62.5 µg/mL (≈ 188 µM)
Selectivity index E. faecalis ([3]; Table 2): > 3.2
MIC ([4]; ATCC25922, read-out: Minimum inhibitory concentration (MIC) E. coli): > 250 µg/mL
Selectivity index E. coli ([4]; Table 2): < 0.8
MIC ([5]; ATCC27853, read-out: Minimum inhibitory concentration (MIC) P. aeruginosa): > 250 µg/mL
Selectivity index P. aeruginosa ([5]; Table 2): < 0.8
MIC ([6]; isolated compounds, Table 2): > 250 µg/mL
Selectivity index S. Typhimurium ([6]; Table 2): < 0.8
MIC ([7]; ATCC29213, read-out: Minimum inhibitory concentration (MIC) S. aureus): > 250 µg/mL
Selectivity index S. aureus ([7]; Table 2): < 0.8
MIC ([2]; ATCC10231, read-out: Minimum inhibitory concentration (MIC) C. albicans): 250 µg/mL (≈ 752 µM)
Selectivity index C. albicans ([2]; Table 2): > 0.8
CC50 at 48 h (in vitro): > 200 µg/mL
Mycelium growth of Botrytis cinerea and Sclerotinia sclerotiorum [8]: inhibition of mycelium growth
EC50 Leishmania braziliensis amastigotes [9]: 16.34 ± 0.49 µg/mL (≈ 49.1 µM)
EC50 Plasmodium falciparum (Plasmodium falciparum): 81.19 ± 8.54 µg/mL (≈ 244 µM)
Toxic effect on HEK295 (HEK295): minimal toxic effect
Reduction of viability of MCF-7 tumor cells (MCF-7 tumor cells): at least 23%
Reduction of viability of Caco-2 tumor cells (Caco-2 tumor cells): ≥ 15%

COc1cc(/C=C/C(=O)O)ccc1O [Ferulic acid, ferulic acid]
MIC [3, 13]: > 250 µg/mL
Selectivity index E. faecalis ([3]; Table 2): < 0.8
MIC [4, 14]: > 250 µg/mL
Selectivity index E. coli ([4]; Table 2): < 0.8
MIC [5, 15]: > 250 µg/mL
Selectivity index P. aeruginosa ([5]; Table 2): < 0.8
MIC ([6]; isolated compounds, Table 2): > 250 µg/mL
Selectivity index S. Typhimurium ([6]; Table 2): < 0.8
MIC [7, 16]: 250 µg/mL (≈ 1290 µM)
Selectivity index S. aureus ([7]; Table 2): > 0.8
MIC [2, 12]: 250 µg/mL (≈ 1290 µM)
Selectivity index C. albicans ([2]; Table 2): > 0.8
CC50 at 48 h (in vitro): > 200 µg/mL
MIC ([10]; all tested strains, read-out: MIC against all tested microorganisms): ≥ 250 µg/mL
MIC against all tested microorganisms [10]: no efficacy
MIC E. coli (E. coli): 100 µg/mL (≈ 515 µM)
MIC P. aeruginosa (P. aeruginosa): 100 µg/mL (≈ 515 µM)
MIC S. aureus (S. aureus): 1100 µg/mL (≈ 5660 µM)
MIC L. monocytogenes (L. monocytogenes): 1250 µg/mL (≈ 6440 µM)

CNC(C)C1CCC(N)C(OC2C(N)CC(N)C(OC3OCC(C)(O)C(NC)C3O)C2O)O1 (stereo not shown) [Gentamicin, reference compound]
MIC ([3]; ATCC29212, crude extracts, Table 1, read-out: Minimum inhibitory concentration (MIC) E. faecalis): 20 µg/mL (≈ 41.9 µM)
MIC [3, 13]: 3.9 µg/mL (≈ 8.17 µM)
MIC ([4]; ATCC25922, crude extracts, Table 1, read-out: Minimum inhibitory concentration (MIC) E. coli): 20 µg/mL (≈ 41.9 µM)
MIC [4, 14]: 3.9 µg/mL (≈ 8.17 µM)
MIC ([5]; ATCC27853, crude extracts, Table 1, read-out: Minimum inhibitory concentration (MIC) P. aeruginosa): 20 µg/mL (≈ 41.9 µM)
MIC [5, 15]: 3.9 µg/mL (≈ 8.17 µM)
MIC ([6]; crude extracts, Table 1): 20 µg/mL (≈ 41.9 µM)
MIC ([6]; isolated compounds, Table 2): 3.9 µg/mL (≈ 8.17 µM)
MIC ([7]; ATCC29213, crude extracts, Table 1, read-out: Minimum inhibitory concentration (MIC) S. aureus): 20 µg/mL (≈ 41.9 µM)
MIC [7, 16]: 3.9 µg/mL (≈ 8.17 µM)

C=C1C(=O)O[C@H]2[C@H]1[C@@H](OC(C)=O)C[C@@](C)(O)[C@@]13O[C@@H]1[C@@H]1O[C@]1(C)[C@H]23 [Yomogiartemin]
IC50 [1]: ~10 µM

O=C1O[C@H]([C@@H](O)CO)C(O)=C1O [vitamin C, reference compound]
IC50 DPPH radical [11]: 1.22 µg/mL (≈ 6.93 µM)
